Measurements reported in US20260232652A1, “COMBINATIONS OF DGK (DIACYLGLYCEROL KINASE) INHIBITORS” (priority 2023, published 2026).
Where “and” joins values, the source holds several entries; their conditions need not be identical. Identical values can stand only once.

Key:
[1] = target: T1, human DGKzeta (Homo sapiens, UniProt Q13574); test: Human DGKzeta kinase activity inhibition assay (ADP-Glo); type: biochemical; settings: read-out: IC50 hDGKz
T1 construct: C-terminally FLAG-tagged, recombinant full-length human DGKζ; made in house; host or cells: baculovirus-infected insect cells
T1 sequence (Q13574 whole entry): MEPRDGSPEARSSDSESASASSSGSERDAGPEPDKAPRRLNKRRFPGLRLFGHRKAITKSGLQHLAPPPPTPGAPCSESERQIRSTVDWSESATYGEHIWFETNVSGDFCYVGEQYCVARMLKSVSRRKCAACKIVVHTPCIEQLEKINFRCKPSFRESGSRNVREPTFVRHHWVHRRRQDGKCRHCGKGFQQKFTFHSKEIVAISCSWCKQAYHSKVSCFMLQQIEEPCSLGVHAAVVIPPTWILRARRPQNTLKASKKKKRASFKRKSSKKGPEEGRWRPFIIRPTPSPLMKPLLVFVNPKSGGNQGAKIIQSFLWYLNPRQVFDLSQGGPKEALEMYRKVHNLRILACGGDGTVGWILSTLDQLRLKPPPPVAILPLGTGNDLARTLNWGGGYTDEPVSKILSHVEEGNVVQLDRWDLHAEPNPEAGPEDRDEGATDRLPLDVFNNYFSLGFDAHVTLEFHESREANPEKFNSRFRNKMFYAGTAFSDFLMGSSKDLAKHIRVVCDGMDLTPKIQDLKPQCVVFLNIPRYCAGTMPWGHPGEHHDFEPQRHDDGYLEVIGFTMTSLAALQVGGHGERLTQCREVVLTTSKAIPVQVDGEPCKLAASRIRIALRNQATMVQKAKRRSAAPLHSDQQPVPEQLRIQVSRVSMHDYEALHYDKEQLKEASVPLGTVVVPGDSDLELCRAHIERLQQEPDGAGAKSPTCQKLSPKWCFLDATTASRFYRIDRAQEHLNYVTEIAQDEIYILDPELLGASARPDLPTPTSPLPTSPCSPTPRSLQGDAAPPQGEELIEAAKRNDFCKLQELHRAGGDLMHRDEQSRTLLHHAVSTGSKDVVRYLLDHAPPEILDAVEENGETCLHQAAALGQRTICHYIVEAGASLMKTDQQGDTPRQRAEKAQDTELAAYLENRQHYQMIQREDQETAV
Experimental: Human diacylglycerol kinase zeta (DGKζ) inhibitory activity of compounds of the present invention was quantified employing the human DGKζ kinase activity assay as described in the following paragraphs. In essence, the enzyme activity was measured by quantification of the adenosine-di-phosphate (ADP) generated as a co-product of the enzyme reaction via the “ADP-Glo™ Kinase Assay” kit from the company Promega. This detection system works as follows: In a first step the adenosine-tri-phosphate (ATP) not consumed in the kinase reaction is quantitatively converted to cyclic adenosine-mono-phosphate (cAMP) employing an adenylate cyclase (“ADP-Glo-reagent”), then the adenylate cyclase is stopped and the ADP generated in the kinase reaction is converted to ATP, which subsequently generates in a luciferase-based reaction a glow-luminescence signal (“Kinase Detection Reagent”).
(§1) C-terminally FLAG-tagged, recombinant full-length human DGKζ (inhouse expressed in baculovirus infected insect cells, purified using anti-Flag pulldown and size exclusion chromatography) was used as enzyme. As an alternative, commercially available enzyme by Carnabio can be used. As substrate for the kinase, 1,2-dioleoyl-sn-glycerol, reconstituted in octyl-β-D-glucopyranoside micelles, was used. […] Then 35 volumes of 50 mM MOPS buffer (pH 7.4) were added to yield a solution of 0.28 mM 1,2 dioleoyl-sn-glycerol and 200 mM octyl-β-D-glucopyranoside, which was aliquoted, flash-frozen in liquid nitrogen, and stored at −20° C. until use.
For the assay 50 nl of a 100-fold concentrated solution of the test compound in dimethyl sulfoxide (DMSO, Sigma) was pipetted into either a white 1536-well or a white low-volume 384-well microtiter plate (both Greiner Bio-One, Frickenhausen, Germany). […] The concentration of DGKζ was adjusted depending of the activity of the enzyme lot and was chosen appropriate to have the assay in the linear range, a typical concentration is about 0.1 nM. The reaction was stopped by the addition of 2.5 μL of “ADP-Glo-reagent” (1 to 1.5 diluted with water) and the resulting mixture was incubated at 22° C. for 1 h to convert the ATP not consumed in the kinase reaction completely to cAMP. […] The amount of emitted light was taken as a measure for the amount of ADP generated and thereby for the activity of the DGKζ.

[2] = target: T2, human DGKalpha (Homo sapiens, UniProt P23743); test: Human DGKalpha kinase activity inhibition assay (ADP-Glo); type: biochemical; settings: read-out: IC50 hDGKa
T2 construct: made in house; host or cells: baculovirus-infected Sf9 insect cells
T2 sequence (P23743 whole entry): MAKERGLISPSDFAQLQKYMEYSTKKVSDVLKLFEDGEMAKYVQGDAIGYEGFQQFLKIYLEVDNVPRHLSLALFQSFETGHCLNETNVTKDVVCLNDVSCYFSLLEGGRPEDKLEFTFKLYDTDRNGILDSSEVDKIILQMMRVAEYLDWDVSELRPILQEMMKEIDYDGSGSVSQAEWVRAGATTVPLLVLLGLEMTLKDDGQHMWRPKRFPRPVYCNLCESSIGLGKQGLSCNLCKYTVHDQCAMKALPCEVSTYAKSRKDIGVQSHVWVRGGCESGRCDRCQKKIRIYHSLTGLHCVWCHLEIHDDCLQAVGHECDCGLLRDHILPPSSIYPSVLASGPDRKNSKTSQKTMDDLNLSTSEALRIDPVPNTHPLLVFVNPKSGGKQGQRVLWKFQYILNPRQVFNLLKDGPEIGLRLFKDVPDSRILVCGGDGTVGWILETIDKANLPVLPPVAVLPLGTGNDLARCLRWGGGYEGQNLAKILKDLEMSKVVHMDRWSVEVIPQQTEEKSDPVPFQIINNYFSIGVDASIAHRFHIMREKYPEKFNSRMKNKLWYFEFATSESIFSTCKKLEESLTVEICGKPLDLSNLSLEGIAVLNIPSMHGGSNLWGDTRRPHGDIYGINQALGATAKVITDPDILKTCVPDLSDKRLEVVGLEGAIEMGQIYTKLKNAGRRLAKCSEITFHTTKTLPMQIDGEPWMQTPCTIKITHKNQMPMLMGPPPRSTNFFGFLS
Experimental: Human DGKalpha inhibitory activity of compounds of the present invention was quantified employing the human DGKalpha kinase activity assay as described in the following paragraphs. In essence, the enzyme activity was measured by quantification of the adenosine-di-phosphate (ADP) generated as a co-product of the enzyme reaction via the “ADP-Glo™ Kinase Assay” kit from the company Promega. This detection system works as follows: In a first step the ATP not consumed in the kinase reaction is quantitatively converted to cAMP employing an adenylate cyclase (“ADP-Glo-reagent”), then the adenylate cyclase is stopped and the ADP generated in the kinase reaction converted to ATP, which subsequently generates in a luciferase-based reaction a glow-luminescence signal (“Kinase Detection Reagent”).
as §1, with “DGKalpha (expressed” for “DGKζ (inhouse expressed”, “chromatography as described below, DGKa_hu_1)” for “chromatography)”, “As” for “As an alternative, commercially available enzyme by Carnabio can be used. As”, “kinase” for “kinase,”
For the assay 50 nl of a 100-fold concentrated solution of the test compound in dimethyl sulfoxide (DMSO, Sigma) was pipetted into either a white 1536-well or a white low-volume 384-well microtiter plate (both Greiner Bio-One, Frickenhausen, Germany). […] The concentration of DGKα was adjusted depending of the activity of the enzyme lot and was chosen appropriate to have the assay in the linear range, a typical concentration is about 0.1 nM. The reaction was stopped by the addition of […] of “ADP-Glo-reagent” (1 to 1.5 diluted with water) and the resulting mixture was incubated at 22° C. for 1 h to convert the ATP not consumed in the kinase reaction completely to cAMP. […] The amount of emitted light was taken as a measure for the amount of ADP generated and thereby for the activity of the DGKα.

[3] = tested on: glioblastoma multiforme (GBM) cells; settings: concurrent administration; cited from earlier work

IC50 [1] | IC50 [2] | SMILES | growth of intracranially injected GBM tumors [3]
8.2 nM and 8.9 nM | > 13300 nM | COc1ccc(C(=O)c2sc(N(c3ccc(F)c(F)c3)C(C)C(N)=O)nc2N)cc1 (single isomer, unassigned) [Example 51.1, 2-(N-[4-amino-5-(4-methoxybenzoyl)thiazol-2-yl]-3,4-difluoro-anilino)propanamide] | –
> 20000 nM | – | Cn1c(=O)c(C#N)c(N2CCC(c3nc4ccc(F)cc4o3)CC2)c2ccccc21 [Example 4, 4-[4-(6-fluoro-1,3-benzoxazol-2-yl)piperidin-1-yl]-1-methyl-2-oxo-1,2-dihydroquinoline-3-carbonitrile] | –
> 20000 nM | – | Cc1ccc2oc(C3CCN(c4c(C(N)=O)c(=O)n(C)c5ccccc45)CC3)nc2c1 [Example 107, 1-methyl-4-[4-(5-methyl-1,3-benzoxazol-2-yl)piperidin-1-yl]-2-oxo-1,2-dihydroquinoline-3-carboxamide] | –
> 20000 nM | – | COc1ccc(C2CCN(c3c(C(N)=O)c(=O)n(C)c4ccccc34)CC2)cc1 [Example 112, 4-[4-(4-methoxyphenyl)piperidin-1-yl]-1-methyl-2-oxo-1,2-dihydroquinoline-3-carboxamide] | –
> 20000 nM | – | CNC(=O)c1c(N2CCC(c3nc4cc(C)ccc4o3)CC2)c2ccccc2n(C)c1=O [Example 448, N,1-dimethyl-4-[4-(5-methyl-1,3-benzoxazol-2-yl)piperidin-1-yl]-2-oxo-1,2-dihydroquinoline-3-carboxamide] | –

The next lines start with the compound.

SMILES | IC50 [1] | IC50 [2] | growth of intracranially injected GBM tumors [3]
CC(C(N)=O)N(c1ccc(F)cc1)c1nc(N)c(C(=O)c2ccc(C(F)(F)F)nc2)s1 (single isomer, unassigned) [Example 29.2, 2-(N-[4-amino-5-[6-(trifluoromethyl)pyridine-3-carbonyl]thiazol-2-yl]-4-fluoro-anilino)propanamide] | 46 nM | > 15000 nM | –
CC(C(N)=O)N(c1ccc(F)cc1)c1nc(N)c(C(=O)c2ccc(OC(F)(F)F)cc2)s1 (single isomer, unassigned) [Example 40.2, 2-(N-[4-amino-5-[4-(trifluoromethoxy)benzoyl]thiazol-2-yl]-4-fluoro-anilino)propanamide] | 7.1 nM | > 12200 nM | –
CC(C(N)=O)N(c1ccc(F)cc1)c1nc(N)c(C(=O)c2ccc(OC(F)F)cc2)s1 (single isomer, unassigned) [Example 44.2, 2-(N-[4-amino-5-[4-(difluoromethoxy)benzoyl]thiazol-2-yl]-4-fluoro-anilino)propanamide] | 3.9 nM and 6.7 nM | > 20000 nM | –
Cc1nc2sccn2c(=O)c1CCN1CCC(=C(c2ccccc2)c2ccc(F)cc2)CC1 [Example R59022] | – | – | decreased growth of intracranially injected GBM tumors
